Data published in patent publication US20230174556A1, “COMPOUNDS AS PROTEIN KINASE INHIBITORS” (Fochon Biosciences, Ltd., priority 2020, published 2023).

Tested on: OCI-LY10 (PI3Kδ dependent) cells
Experiment: OCI-LY10 cell proliferation assay (MTS)
Type: cell-based
Conditions: inhibition of OCI-LY10 cells proliferation, 72 h incubation, MTS readout at 490 nm
Experimental: MTS testing kit was purchased from Promega (Madison, WI, USA). The RPMI-1640, Fetal bovine serum and Penicillin-Streptomycin were purchased from BI (Biological Industries, Beit Haemek, Israel). Dimethyl sulfoxide (DMSO) was purchased from Sigma (St. Louis., MO, USA). OCI-LY10 cells were cultured in RPMI1640 supplemented with Penicillin-Streptomycin and 10% FBS.
To investigate whether a compound is able to inhibit the activity of PI3Kδ in cells, a mechanism-based assay using OCI-LY10 (PI3Kδ dependent) cells was developed. In this assay, inhibition of PI3Kδ was detected by the inhibition of OCI-LY10 cells proliferation. Cells were plated into 96-well plates at a density of 10000 cells/well. Plates were incubated at 37° C., with 5 % CO2 for 4 h. Compounds were serially diluted and added to the plates with the final compound concentrations as 10000, 3333.3, 1111.1, […], 123.5, 41.2, 13.7, 4.6 and 1.5 nM. Plates were incubated at 37° C., with 5 % CO2 for 72 h. 20 µl MTS was added into each well and the plates were incubated at 37° C., with 5 % CO2 for exactly 2 h. The absorbance was measured by a microplate reader at 490 nm. IC50 was calculated using GraphPad Prism 5.0 software.

Substance: (S)-N-(5-(4-amino-1-(1-(3-methyl-5-o xo-6-phenyl-5H-thiazolo[3,2-α]pyridin -7-yl)ethyl)-1H-pyrazolo[3,4-d]pyrimi din-3-yl)-2-methoxypyridin-3-yl)meth anesulfonamide [Example 76]
- IC50: 1 nM
